The values below are quoted from earlier work in patent publication US12156855B2, “Infusion dosage form of norepinephrine” (Sun Pharmaceutical Industries Limited, priority 2019, dated 2024).

As to `O=Cc1ccc(O)c(O)c1` [3,4 dihydroxybenzaldehyde, 3,4-dihydroxybenzaldehyde], the reported toxicity result (heart, ZHANG Cui-ying et al) is on record as “toxic to the heart”.
Consider `Oc1cc2c(cc1O)C(O)CNC2` (centres unmarked) [impurity of Formula I, 1,2,3,4-tetrahydroisoquinoline-4,6,7-triol], for which, under “Hans Aaron Bates, J. Org. Chem. 1983”, the reported pharmacological action result is given as “acts as false neurotransmitter”.
